We go through ten molecules from patent US10023544B2, “Heterocyclic compound” (Takeda Pharmaceutical Company Limited, priority 2014, dated 2018).

The inhibition is the drop in the measured response relative to a control, in per cent.

The target of assay [1] is T1, Human recombinant enteropeptidase (Homo sapiens, UniProt P98073).
T1 construct: purchased ITSI-Biosciences, LLC #REN-260
Put plainly: Human enteropeptidase inhibitory activity. The assay is classed as biochemical. To be noted: 3.3 uM test compound; fluorescence intensity 2 hours after start of reaction; read-out: Inhibition rate at 3.3 uM (%). As for the experimental part: Human recombinant enteropeptidase (#REN-260, ITSI-Biosciences, LLC) was diluted with an assay buffer (50 mM Tricine (pH 8.0), 0.01 (w/v) % Tween 20, 10 mM CaCl2) to prepare a 24 mU/mL enzyme solution. Subsequently, 5FAM-Abu-Gly-Asp-Asp-Asp-Lys-Ile-Val-Gly-Gly-Lys(CPQ2)-Lys-Lys-NH2 (purity: 97.2%, CPC Scientific, Inc.) produced according to a synthesis method known per se was diluted with an assay buffer to prepare a 2.1 uM (“u” represents “micro”) substrate solution. Each test compound was dissolved in DMSO to prepare a 1 mM solution, which was then diluted 100-fold with an assay buffer to prepare a compound solution. The compound solution (5 uL/well) and the substrate solution (5 uL/well) were added to a 384-well black plate (#784076, Greiner Bio-One) and mixed. Then, the enzyme solution (5 uL/well) was added to the plate and mixed to start reaction. The fluorescence intensity was measured at an excitation wavelength of 485 nm and a fluorescence wavelength of 535 nm using a fluorescence plate reader EnVision (PerkinElmer Inc.). Also, the same reaction as above was performed except that the test compound was not added (test compound non-supplemented group). In addition, the same reaction as above was performed except that neither the test compound nor the enzyme was added (control group). The inhibition rate was calculated from the fluorescence intensity 2 hours after the start of the reaction according to the following equation: Inhibition rate (%)=(1−(Fluorescence intensity of the test compound supplemented group−Fluorescence intensity of the control group)/(Fluorescence intensity of the test compound non-supplemented group−Fluorescence intensity of the control group))×100

The subject of assay [2] is HFD-fed mouse. Put plainly: Test on elevation of protein concentration in feces using HFD-fed mouse. To be noted: 10 mg/kg oral, whole feces at day 1 of administration, mean ± SD. The assay is classed as in vivo. As for the experimental part: A 0.5% methylcellulose suspension (test compound administered group, 5 mice per group) containing each test compound (10 mg/kg) or a 0.5% methylcellulose suspension (test compound non-administered group (vehicle), 5 mice per group) was orally administered to each high fat diet-fed (HFD-fed) mouse (D12079B diet, male, 15 weeks old), and the whole feces were recovered at day 1 of administration. The dry feces were dissolved in a 0.5 N aqueous sodium hydroxide solution. After centrifugation at 12,000 rpm, a protein concentration was quantified (Lowry method) using the supernatant to calculate a protein concentration (mg/g feces) in 1 g of feces. The mean and standard deviation of each group are shown below.

Assay [3] has as its system DIO mouse. Put plainly: Test on antiobesity action using DIO mouse. The class given is in vivo. To be noted: mean ± SD; for Body weight (g) At start of administration: baseline. The method, then: A 0.5% methylcellulose suspension (test compound administered group, 5 or 6 mice per group) containing each test compound (20 or 60 mg/kg) or a 0.5% methylcellulose suspension (test compound non-administered group (vehicle), 6 mice per group) was orally administered to each diet-induced obesity (DIO) mouse (D12079B diet, male, 46 weeks old) once a day for 4 weeks. The means of body weights and standard deviations at the start of administration and after 4-week continuous administration are shown below.

T1 sequence (P98073 whole entry): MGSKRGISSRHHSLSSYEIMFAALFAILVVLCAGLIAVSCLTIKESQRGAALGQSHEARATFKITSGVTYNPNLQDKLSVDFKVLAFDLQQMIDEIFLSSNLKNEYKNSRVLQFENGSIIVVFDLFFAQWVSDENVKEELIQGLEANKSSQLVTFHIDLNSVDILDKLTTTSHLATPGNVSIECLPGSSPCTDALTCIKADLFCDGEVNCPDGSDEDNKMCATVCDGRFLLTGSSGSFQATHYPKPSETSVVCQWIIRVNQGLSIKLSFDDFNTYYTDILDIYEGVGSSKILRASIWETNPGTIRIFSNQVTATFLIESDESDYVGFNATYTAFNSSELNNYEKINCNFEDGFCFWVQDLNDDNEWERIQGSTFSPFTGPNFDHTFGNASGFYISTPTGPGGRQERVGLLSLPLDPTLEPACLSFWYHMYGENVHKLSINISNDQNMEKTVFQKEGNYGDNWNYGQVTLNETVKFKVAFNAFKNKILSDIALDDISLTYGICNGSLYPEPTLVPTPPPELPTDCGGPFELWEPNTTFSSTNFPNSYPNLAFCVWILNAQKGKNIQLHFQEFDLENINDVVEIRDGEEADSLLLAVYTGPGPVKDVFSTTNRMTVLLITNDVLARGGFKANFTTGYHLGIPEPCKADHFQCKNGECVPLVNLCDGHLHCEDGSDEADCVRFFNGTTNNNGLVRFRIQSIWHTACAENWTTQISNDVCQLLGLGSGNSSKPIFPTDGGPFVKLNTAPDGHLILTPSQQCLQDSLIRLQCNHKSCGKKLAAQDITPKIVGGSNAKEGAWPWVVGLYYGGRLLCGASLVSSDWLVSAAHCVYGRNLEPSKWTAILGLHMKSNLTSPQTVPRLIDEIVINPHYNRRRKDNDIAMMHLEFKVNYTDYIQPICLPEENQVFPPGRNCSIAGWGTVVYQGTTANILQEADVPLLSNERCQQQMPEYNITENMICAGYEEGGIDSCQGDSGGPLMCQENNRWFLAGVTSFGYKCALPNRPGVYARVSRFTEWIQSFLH

For `N=C(N)Nc1ccc(C(=O)Oc2cccc(C3=NO[C@](CC(=O)O)(C(=O)O)C3)c2)cc1` [Example 1, (5R)-3-(3-((4-Carbamimidamidobenzoyl)oxy)phenyl)-5-(carboxymethyl)-4,5-dihydro-1,2-oxazole-5-carboxylic acid], the inhibition at 3.3 µM in assay [1] stood at 101%. Besides, the “Protein concentration in feces” value in assay [2] was 151.5 ± 22.8 mg/g. Further, the “Body weight (g) After 4-week continuous administration” value amounted to 43.1 ± 3.5 g in assay [3] (20 mg/kg oral once a day for 4 weeks) and 40.2 ± 2.1 g in assay [3] (60 mg/kg oral once a day for 4 weeks). In addition, the entries for the “Body weight (g) At start of administration” value in assay [3] (20 mg/kg oral once a day) and in assay [3] (60 mg/kg oral once a day) were 48.9 ± 2.0 g and 48.9 ± 2.5 g, respectively. Take `N=C(N)Nc1ccc(C(=O)Oc2cccc(C3=NO[C@@](CC(=O)O)(C(=O)O)C3)c2)cc1` [Example 5, (5S)-3-(3-((4-Carbamimidamidobenzoyl)oxy)phenyl)-5-(carboxymethyl)-4,5-dihydro-1,2-oxazole-5-carboxylic acid]: in assay [1], the inhibition at 3.3 µM is 101%. In assay [2], the “Protein concentration in feces” value was 144.5 ± 26.6 mg/g. `CS(=O)(=O)CCNC(=O)CCc1ccc(OC(=O)c2ccc(NC(=N)N)cc2)cc1C1=NOC(CC(=O)O)(CC(=O)O)C1` [Example 27, 2,2′-(3-(5-((4-carbamimidamidobenzoyl)oxy)-2-(3-((2-(methylsulfonyl)ethyl)amino)-3-oxopropyl)phenyl)-4,5-dihydro-1,2-oxazole-5,5-diyl)diacetic acid]: in assay [1], the inhibition at 3.3 µM was determined as 100%. For `N=C(N)Nc1ccc(C(=O)Oc2ccc(CCC(=O)N[C@@H](CC(N)=O)C(=O)O)c(C3=NOC(CC(=O)O)(CC(=O)O)C3)c2)cc1` [Example 28, N^2-(3-(2-(5,5-bis(carboxymethyl)-4,5-dihydro-1,2-oxazol-3-yl)-4-((4-carbamimidamidobenzoyl)oxy)phenyl)propanoyl)-L-asparagine], the inhibition at 3.3 µM in assay [1] turned out to be 100%. For the molecule `N=C(N)Nc1ccc(C(=O)Oc2ccc(CCC(=O)N[C@@H](CCC(N)=O)C(=O)O)c(C3=NOC(CC(=O)O)(CC(=O)O)C3)c2)cc1` [Example 29, N^2-(3-(2-(5,5-bis(carboxymethyl)-4,5-dihydro-1,2-oxazol-3-yl)-4-((4-carbamimidamidobenzoyl)oxy)phenyl)propanoyl)-L-glutamine], the inhibition at 3.3 µM in assay [1] was 100%. Still for that read-out and setting: the value for `N=C(N)Nc1ccc(C(=O)Oc2ccc(CCC(=O)NCC(=O)O)c(C3=NOC(CC(=O)O)(CC(=O)O)C3)c2)cc1` [Example 30, N-(3-(2-(5,5-bis(carboxymethyl)-4,5-dihydro-1,2-oxazol-3-yl)-4-((4-carbamimidamidobenzoyl)oxy)phenyl)propanoyl)glycine] was 100%. `CN(CC(=O)O)C(=O)CCc1ccc(OC(=O)c2ccc(NC(=N)N)cc2)cc1C1=NOC(CC(=O)O)(CC(=O)O)C1` [Example 31, N-(3-(2-(5,5-bis(carboxymethyl)-4,5-dihydro-1,2-oxazol-3-yl)-4-((4-carbamimidamidobenzoyl)oxy)phenyl)propanoyl)-N-methylglycine]: the inhibition at 3.3 µM in assay [1] is 100%. On to `N=C(N)Nc1ccc(C(=O)Oc2ccc(CCC(=O)NCCC(=O)O)c(C3=NOC(CC(=O)O)(CC(=O)O)C3)c2)cc1` [Example 32, N-(3-(2-(5,5-bis(carboxymethyl)-4,5-dihydro-1,2-oxazol-3-yl)-4-((4-carbamimidamidobenzoyl)oxy)phenyl)propanoyl)-beta-alanine], for which, in assay [1], the inhibition at 3.3 µM was 100%. Still for that read-out and setting: the value for `N=C(N)Nc1ccc(C(=O)Oc2ccc(CCC(=O)N3CCC(C(=O)O)CC3)c(C3=NOC(CC(=O)O)(CC(=O)O)C3)c2)cc1` [Example 33, 1-(3-(2-(5,5-Bis(carboxymethyl)-4,5-dihydro-1,2-oxazol-3-yl)-4-((4-carbamimidamidobenzoyl)oxy)phenyl)propanoyl)piperidine-4-carboxylic acid] was 100%; that for `N=C(N)Nc1ccc(C(=O)Oc2ccc(CCC(=O)NCCS(=O)(=O)O)c(C3=NOC(CC(=O)O)(CC(=O)O)C3)c2)cc1` [Example 34, 2,2′-(3-(5-((4-Carbamimidamidobenzoyl)oxy)-2-(3-oxo-3-((2-sulfoethyl)amino)propyl)phenyl)-4,5-dihydro-1,2-oxazole-5,5-diyl)diacetic acid] was 101%.
